Data as given in ChEMBL document CHEMBL1144453, “Ligand binding analysis for human alpha5beta1 integrin: strategies for designing new alpha5beta1 integrin antagonists” (J Med Chem, 2005).

Key:
[1] = target: Integrin alpha-IIb/beta-3 (Homo sapiens, UniProt P05106+P08514); test: Inhibition of alpha IIb beta3 integrin receptor in human platelet rich plasma
[2] = target: Integrin alpha-V/beta-3 (Homo sapiens, UniProt P05106+P06756); test: Inhibition of fibrinogen binding to alphaV-beta3 integrin receptor; format: protein-complex assay
[3] = target: Integrin alpha-5/beta-1 (Homo sapiens, UniProt P05556+P08648); test: Inhibition of alpha5-beta1 integrin receptor in ELISA; format: protein-complex assay
Chain of Integrin alpha-5/beta-1 (P05556 21-798 limits assumed): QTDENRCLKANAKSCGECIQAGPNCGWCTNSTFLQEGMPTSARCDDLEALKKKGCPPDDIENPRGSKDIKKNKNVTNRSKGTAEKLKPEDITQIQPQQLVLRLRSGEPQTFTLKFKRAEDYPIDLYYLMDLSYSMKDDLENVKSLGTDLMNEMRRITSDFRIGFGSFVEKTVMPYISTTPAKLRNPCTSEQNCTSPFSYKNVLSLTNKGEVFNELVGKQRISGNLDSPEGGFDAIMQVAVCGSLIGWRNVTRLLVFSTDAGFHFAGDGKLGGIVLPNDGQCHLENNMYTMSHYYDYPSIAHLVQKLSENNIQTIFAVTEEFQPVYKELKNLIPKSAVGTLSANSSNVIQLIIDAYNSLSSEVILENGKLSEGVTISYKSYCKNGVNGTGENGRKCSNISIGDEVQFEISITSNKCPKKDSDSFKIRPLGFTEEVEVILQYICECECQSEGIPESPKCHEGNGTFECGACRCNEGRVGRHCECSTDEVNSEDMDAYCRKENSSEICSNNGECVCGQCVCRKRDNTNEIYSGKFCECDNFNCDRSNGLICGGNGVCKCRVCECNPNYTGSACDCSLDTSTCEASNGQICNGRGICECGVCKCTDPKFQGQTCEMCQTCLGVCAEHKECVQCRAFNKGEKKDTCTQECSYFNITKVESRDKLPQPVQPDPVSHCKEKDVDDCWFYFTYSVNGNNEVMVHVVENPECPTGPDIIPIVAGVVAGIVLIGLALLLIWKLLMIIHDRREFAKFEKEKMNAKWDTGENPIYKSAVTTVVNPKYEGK
Chain of Integrin alpha-5/beta-1 (P08648 42-894 limits assumed): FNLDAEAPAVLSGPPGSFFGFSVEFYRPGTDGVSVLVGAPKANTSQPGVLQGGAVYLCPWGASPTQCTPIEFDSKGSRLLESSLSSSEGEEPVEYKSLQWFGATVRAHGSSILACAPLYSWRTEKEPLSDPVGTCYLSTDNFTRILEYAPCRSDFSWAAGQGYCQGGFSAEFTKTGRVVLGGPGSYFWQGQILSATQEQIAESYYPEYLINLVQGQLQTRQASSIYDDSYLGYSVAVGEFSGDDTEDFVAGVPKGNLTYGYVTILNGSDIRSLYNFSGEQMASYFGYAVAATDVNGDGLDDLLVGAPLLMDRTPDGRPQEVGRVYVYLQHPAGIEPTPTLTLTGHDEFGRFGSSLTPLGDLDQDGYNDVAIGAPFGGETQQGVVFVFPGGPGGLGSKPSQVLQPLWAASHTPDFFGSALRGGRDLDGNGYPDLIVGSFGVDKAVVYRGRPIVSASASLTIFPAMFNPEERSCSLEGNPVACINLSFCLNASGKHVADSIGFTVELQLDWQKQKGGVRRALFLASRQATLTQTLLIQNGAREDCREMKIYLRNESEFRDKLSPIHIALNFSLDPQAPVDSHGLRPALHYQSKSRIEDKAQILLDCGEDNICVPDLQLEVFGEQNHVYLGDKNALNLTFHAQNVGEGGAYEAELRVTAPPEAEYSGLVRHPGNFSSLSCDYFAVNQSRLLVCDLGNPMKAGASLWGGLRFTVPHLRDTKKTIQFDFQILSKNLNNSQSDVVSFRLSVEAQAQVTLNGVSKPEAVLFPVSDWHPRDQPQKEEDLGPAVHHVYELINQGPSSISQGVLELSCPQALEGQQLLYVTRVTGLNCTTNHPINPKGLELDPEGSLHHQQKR
Chain of Integrin alpha-5/beta-1 (P08648 895-1049 limits assumed): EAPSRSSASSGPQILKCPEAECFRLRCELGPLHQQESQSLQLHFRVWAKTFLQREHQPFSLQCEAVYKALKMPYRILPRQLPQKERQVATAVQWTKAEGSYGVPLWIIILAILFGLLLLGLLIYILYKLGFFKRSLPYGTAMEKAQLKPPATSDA

Chain of Integrin alpha-V/beta-3 (P05106 27-788 limits assumed): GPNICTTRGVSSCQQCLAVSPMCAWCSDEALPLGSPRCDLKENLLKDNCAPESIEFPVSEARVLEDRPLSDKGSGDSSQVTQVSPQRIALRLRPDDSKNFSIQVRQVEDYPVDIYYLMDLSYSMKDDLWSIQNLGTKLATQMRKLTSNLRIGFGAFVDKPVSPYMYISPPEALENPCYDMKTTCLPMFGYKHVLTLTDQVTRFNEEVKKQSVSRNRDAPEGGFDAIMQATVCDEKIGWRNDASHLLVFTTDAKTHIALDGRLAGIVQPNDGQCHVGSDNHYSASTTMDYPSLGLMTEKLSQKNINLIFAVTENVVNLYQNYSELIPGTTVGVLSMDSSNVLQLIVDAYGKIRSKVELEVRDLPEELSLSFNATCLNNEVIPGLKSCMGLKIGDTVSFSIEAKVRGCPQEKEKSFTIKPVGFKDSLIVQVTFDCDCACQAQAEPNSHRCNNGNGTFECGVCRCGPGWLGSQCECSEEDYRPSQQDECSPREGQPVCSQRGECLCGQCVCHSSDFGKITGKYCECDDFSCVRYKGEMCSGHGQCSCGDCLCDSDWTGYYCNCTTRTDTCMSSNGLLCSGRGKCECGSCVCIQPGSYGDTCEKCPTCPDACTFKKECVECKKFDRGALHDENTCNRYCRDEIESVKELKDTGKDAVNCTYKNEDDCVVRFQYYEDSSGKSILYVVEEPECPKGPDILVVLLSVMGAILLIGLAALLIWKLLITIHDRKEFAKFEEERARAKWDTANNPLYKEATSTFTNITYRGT
Chain of Integrin alpha-V/beta-3 (P06756 31-889 limits assumed): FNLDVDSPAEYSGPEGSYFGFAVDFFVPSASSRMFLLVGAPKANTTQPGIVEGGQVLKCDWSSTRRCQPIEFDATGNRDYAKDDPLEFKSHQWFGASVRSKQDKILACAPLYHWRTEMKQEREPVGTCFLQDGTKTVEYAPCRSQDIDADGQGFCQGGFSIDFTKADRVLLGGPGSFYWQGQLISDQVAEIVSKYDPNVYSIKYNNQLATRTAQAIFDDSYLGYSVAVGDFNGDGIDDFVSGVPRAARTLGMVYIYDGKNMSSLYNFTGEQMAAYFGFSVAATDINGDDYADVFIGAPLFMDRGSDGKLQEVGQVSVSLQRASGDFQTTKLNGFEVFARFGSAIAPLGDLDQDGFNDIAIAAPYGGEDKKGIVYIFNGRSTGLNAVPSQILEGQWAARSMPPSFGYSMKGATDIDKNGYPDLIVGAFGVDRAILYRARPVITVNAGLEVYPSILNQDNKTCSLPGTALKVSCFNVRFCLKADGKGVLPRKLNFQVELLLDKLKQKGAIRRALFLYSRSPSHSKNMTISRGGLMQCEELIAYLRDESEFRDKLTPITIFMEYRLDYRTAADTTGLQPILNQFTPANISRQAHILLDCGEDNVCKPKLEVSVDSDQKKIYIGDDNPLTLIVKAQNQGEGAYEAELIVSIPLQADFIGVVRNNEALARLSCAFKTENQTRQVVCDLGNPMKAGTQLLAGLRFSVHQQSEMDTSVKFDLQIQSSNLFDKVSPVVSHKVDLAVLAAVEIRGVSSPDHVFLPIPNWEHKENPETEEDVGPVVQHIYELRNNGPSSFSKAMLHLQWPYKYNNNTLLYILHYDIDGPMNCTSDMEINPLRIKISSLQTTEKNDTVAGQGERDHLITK
Chain of Integrin alpha-V/beta-3 (P06756 891-1048 limits assumed): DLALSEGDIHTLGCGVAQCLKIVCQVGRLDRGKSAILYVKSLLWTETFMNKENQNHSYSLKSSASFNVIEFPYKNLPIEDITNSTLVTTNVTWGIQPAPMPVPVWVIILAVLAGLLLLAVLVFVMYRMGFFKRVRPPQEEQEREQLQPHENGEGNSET
Chain of Integrin alpha-IIb/beta-3 (P05106 27-788 limits assumed): as the sequence (P05106 27-788 limits assumed) above
Chain of Integrin alpha-IIb/beta-3 (P08514 32-887 limits assumed): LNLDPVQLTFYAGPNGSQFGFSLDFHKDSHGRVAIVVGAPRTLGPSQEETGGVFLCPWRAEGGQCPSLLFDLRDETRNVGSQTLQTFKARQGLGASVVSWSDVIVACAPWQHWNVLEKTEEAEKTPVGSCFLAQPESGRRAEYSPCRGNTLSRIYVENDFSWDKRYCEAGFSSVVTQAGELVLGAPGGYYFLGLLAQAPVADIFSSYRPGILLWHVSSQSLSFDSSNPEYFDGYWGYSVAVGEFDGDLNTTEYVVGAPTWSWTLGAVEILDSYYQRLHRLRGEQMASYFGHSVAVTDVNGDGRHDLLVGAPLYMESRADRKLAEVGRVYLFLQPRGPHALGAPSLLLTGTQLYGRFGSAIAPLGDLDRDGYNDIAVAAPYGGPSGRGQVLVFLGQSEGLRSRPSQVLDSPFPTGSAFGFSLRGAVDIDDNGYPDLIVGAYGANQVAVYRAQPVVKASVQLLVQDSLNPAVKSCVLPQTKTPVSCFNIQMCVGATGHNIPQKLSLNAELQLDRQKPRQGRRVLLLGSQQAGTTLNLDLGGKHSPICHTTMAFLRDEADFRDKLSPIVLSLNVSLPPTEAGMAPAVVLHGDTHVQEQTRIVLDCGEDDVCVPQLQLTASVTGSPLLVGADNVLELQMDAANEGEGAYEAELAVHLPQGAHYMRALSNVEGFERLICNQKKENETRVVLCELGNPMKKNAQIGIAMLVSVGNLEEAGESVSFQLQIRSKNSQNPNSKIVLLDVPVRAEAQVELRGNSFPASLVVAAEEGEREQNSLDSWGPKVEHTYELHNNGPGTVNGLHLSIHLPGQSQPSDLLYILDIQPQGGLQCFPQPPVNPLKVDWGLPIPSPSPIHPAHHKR
Chain of Integrin alpha-IIb/beta-3 (P08514 891-1039 limits assumed): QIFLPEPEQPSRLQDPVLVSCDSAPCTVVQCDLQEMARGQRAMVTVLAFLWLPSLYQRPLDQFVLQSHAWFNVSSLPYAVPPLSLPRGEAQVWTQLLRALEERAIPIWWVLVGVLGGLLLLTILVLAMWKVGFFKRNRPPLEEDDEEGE

SMILES	IC50 [1] [nM]	IC50 [2] [nM]	IC50 [3] [nM]
COC(=O)N1C[C@@]2(CC(C(=O)NC[C@H](NS(=O)(=O)c3c(C)cc(C)cc3C)C(=O)O)=NO2)C[C@H]1CNc1ncc[nH]1	7300	57	
Cc1cc(C)c(S(=O)(=O)N[C@@H](CNC(=O)C2=NO[C@]3(C2)C[C@@H](CNc2ncc[nH]2)N(C(=O)OCc2cccnc2)C3)C(=O)O)c(C)c1	5600	32	
CCCCOC(=O)N1C[C@@]2(CC(C(=O)NC[C@H](NS(=O)(=O)c3c(C)cc(C)cc3C)C(=O)O)=NO2)C[C@H]1CNc1ncc[nH]1	11000	130	
Cc1cc(C)c(S(=O)(=O)N[C@@H](CNC(=O)C2=NO[C@]3(CN[C@H](CNc4ncc[nH]4)C3)C2)C(=O)O)c(C)c1	1400	180	
CCCCOC(=O)N1C[C@@]2(CC(C(=O)NC[C@H](NS(=O)(=O)c3c(C)cc(C)cc3C)C(=O)O)=NO2)C[C@H]1CNc1nc2ccccc2[nH]1	> 100000	87	
COC(=O)N1C[C@@]2(CC(C(=O)NC[C@H](NS(=O)(=O)c3c(C)cc(C)cc3C)C(=O)O)=NO2)C[C@H]1CNc1nc2ccccc2[nH]1	> 100000	34	
Cc1cc(C)c(S(=O)(=O)N[C@@H](CNC(=O)C2=NO[C@]3(C2)C[C@@H](CNC2NC=CN2)N(C(=O)OCc2ccccc2)C3)C(=O)O)c(C)c1	7300	57	13
Cc1cc(C)c(S(=O)(=O)N[C@@H](CNC(=O)C2=NO[C@]3(C2)C[C@@H](CNc2ncc[nH]2)N(C(=O)OCc2ccccc2)C3)C(=O)O)c(C)c1	34000	41	
Cc1cc(C)c(S(=O)(=O)N[C@@H](CNC(=O)C2=NOC3(C2)C[C@@H](CNC2NC=CN2)N(C(=O)OCc2ccccc2)C3)C(=O)O)c(C)c1 (single isomer, unassigned)	9200	> 1000	1200
Cc1cc(C)c(S(=O)(=O)N[C@@H](CNC(=O)C2=NO[C@]3(C2)C[C@@H](CNc2ccccn2)N(C(=O)OCc2ccccc2)C3)C(=O)O)c(C)c1	> 100000	49	
